From patent US10941137B2, “Difluoromethyl-phenyl triazoles” (Boehringer Ingelheim International GmbH, priority 2018, dated 2021)

Tests used:
[1] = Metabolic stability in human liver microsomes (Human MST); format: in vitro ADME; conditions: pooled human liver microsomes, pH 7.6; human liver microsomes 1 mg/mL, 1 μM compound, NADPH 1 mM, 37° C.; read-out: Human MST t1/2
Method: Assessment of Metabolic Stability in Human Liver Microsomes (Human MST) The metabolic stability of the compounds according to the invention may be investigated as follows: The metabolic degradation of the test compound is assayed at 37° C. with pooled human liver microsomes. The final incubation volume of 100 μL per time point contains TRIS buffer pH 7.6 at room temperature (0.1 M), MgCl2 (5 mM), microsomal protein (1 mg/mL) and the test compound at a final concentration of 1 μM. Following a short pre-incubation period at 37° C., the reactions are initiated by addition of beta-nicotinamide adenine dinucleotide phosphate, reduced form (NADPH, 1 mM), and terminated by transferring an aliquot into solvent after different time points. After centrifugation (10000 g, 5 min), an aliquot of the supernatant is assayed by LCMS/MS for the amount of parent compound. The half-life (t½) is determined by the slope of the semi-logarithmic plot of the concentration-time profile.

α5β2γ2 GABAA receptor = target: T1, α5β2γ2 GABAA receptor (Homo sapiens, UniProt P18507+P31644); assay: Assay B: modulation of α5β2γ2 GABAA receptor, two-electrode voltage clamp in oocytes; format: cell-based; conditions: for EC50: oocytes, TEVC, co-application with GABA 0.5 μM (EC5-20), read-out: Assay B: GABAA α5β3γ2 EC50
T1 sequence (P31644 32-462): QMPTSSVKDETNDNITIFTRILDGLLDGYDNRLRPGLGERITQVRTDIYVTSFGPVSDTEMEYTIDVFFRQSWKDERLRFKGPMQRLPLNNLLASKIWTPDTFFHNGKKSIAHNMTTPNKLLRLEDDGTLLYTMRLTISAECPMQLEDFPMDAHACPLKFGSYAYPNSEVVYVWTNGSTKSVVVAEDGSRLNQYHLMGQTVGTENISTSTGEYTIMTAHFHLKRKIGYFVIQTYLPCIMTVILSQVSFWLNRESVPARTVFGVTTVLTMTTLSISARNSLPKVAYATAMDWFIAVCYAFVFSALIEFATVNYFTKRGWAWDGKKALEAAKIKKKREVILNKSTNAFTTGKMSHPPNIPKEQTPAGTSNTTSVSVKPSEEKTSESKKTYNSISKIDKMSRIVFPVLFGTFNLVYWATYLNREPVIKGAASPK
T1 sequence (P18507 40-376 limits assumed): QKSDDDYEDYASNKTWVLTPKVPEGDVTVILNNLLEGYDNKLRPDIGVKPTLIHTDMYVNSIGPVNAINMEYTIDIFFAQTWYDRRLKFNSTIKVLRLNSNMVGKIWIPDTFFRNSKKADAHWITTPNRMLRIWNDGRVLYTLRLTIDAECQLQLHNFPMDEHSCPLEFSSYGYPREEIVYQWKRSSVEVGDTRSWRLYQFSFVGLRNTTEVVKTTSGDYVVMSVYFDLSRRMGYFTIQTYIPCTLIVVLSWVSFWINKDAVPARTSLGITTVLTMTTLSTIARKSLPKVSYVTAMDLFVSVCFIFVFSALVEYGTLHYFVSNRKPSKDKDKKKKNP
Method: Assay B: In vitro evaluation of modulation of α5β2γ2 GABAA receptor.
Modulatory efficacy of compounds of formula (I) is determined electrophysiological recordings in oocytes using the two-electrode voltage clamp (TEVC) technique. Oocytes are injected with cRNA for human GABAA receptor subunits α5, β2 and γ2 in a 3:1:3 ratio and modulatory efficacy is evaluated by co-applications with a submaximal EC5-20 GABA concentration (0.5 μM) termed GABA control. As a standard, the compounds are tested in five concentrations (3.16, 0.316, 0.0316, 0.00316 and 0.000316 μM) on each oocyte starting with the lowest concentration. Background subtracted peak current amplitudes are normalized to the respective GABA control current, converted to % change and depicted +/−S.E.M. as a function of increasing compound concentrations. Plotted datapoints are fitted to the empirical Hill equation using non-linear regression. 95% confidence intervals for maximal efficacy (Bottom) and potency (Log EC50) are derived from this fitting routine.

human MDR1 P-gp = assay: Efflux in MDCK cells transfected with the human MDR1 gene (MDCK-PGP permeability); format: in vitro ADME, canine; conditions: dog, pH 7.4, 37° C.; for efflux ratio: PEBA/PEAB; for Papp A→B: apical-to-basal apparent permeability (PEAB)
Method: Assessment of Efflux in Madin-Darby Canine Kidney (MDCK) Cells Transfected with the 30 Human MDR1 Gene to Assess Brain Penetration (Drug Metabolism and Disposition February 2008, 36 (2) 268-275; DOI: https://doi.org/10.1124/dmd.107.017434) Apparent permeability coefficients (PE) of the compounds across the MDCK-MDR1 cell monolayers are measured (pH 7.4, 37° C.) in apical-to-basal (AB) and basal-to-apical (BA) transport direction. AB permeability (PEAB) represents drug absorption from the blood into the 35 brain and BA permeability (PEBA) drug efflux from the brain back into the blood via both passive permeability as well as active transport mechanisms mediated by efflux and uptake transporters that are expressed on the MDCK-MDR1 cells, predominantly by the overexpressed human MDR1 P-gp. The compounds are assigned to permeability/absorption classes by comparison of the AB permeabilities with the AB permeabilities of reference compounds with known in vitro permeability and oral absorption in the human. Identical or similar permeabilities in both transport directions indicate passive permeation, vectorial permeability points to additional active transport mechanisms. Higher PEBA than PEAB indicates the involvement of active efflux mediated by MDR1 P-gp. Active transport is concentration-dependently saturable.
MDCK-MDR1 cells (1-2×10e5 cells/1 cm2 area) are seeded on filter inserts (Costar transwell polycarbonate or PET filters, 0.4 μm pore size) and cultured (DMEM) for 7 days. Subsequently, the MDR1 expression is boosted by culturing the cells with 5 mM sodium butyrate in full medium for 2 days. Compounds are dissolved in appropriate solvent (like DMSO, 1-20 mM stock solutions). Stock solutions are diluted with HTP-4 buffer (128.13 mM NaCl, 5.36 mM KCl, 1 mM MgSO4, 1.8 mM CaCl2, 4.17 mM NaHCO3, 1.19 mM Na2HPO4×7H2O, 0.41 mM NaH2PO4xH2O, 15 mM HEPES, 20 mM glucose, 0.25% BSA, pH 7.4) to prepare the transport solutions (0.1-300 μM compound, final DMSO <=0.5%). The transport solution (TL) is applied to the apical or basolateral donor side for measuring A-B or B-A permeability (3 filter replicates), respectively. The receiver side contains the same buffer as the donor side. Samples are collected at the start and end of experiment from the donor and at various time intervals for up to 2 hours also from the receiver side for concentration measurement by HPLC-MS/MS or scintillation counting. Sampled receiver volumes are replaced with fresh receiver solution.

Row | SMILES | half-life at 1 μM [1] | Assay B: GABAA α5β3γ2 Emax vs GABA (α5β2γ2 GABAA receptor) | EC50 (α5β2γ2 GABAA receptor) | efflux ratio (human MDR1 P-gp) | Papp A→B (human MDR1 P-gp)
1 | Cc1nnn(-c2ccc(C(F)F)cc2)c1COc1ccc(-c2cncnc2)nn1 [Example 22] | > 2.17 h | -17.3% | 0.5 nM | 1.1 | 496 nm/s
2 | Cc1nnn(-c2ccc(C(F)F)cc2)c1COc1ccc(-n2cnc(C[N+](C)(C)C)c2)nn1.O=C([O-])C(F)(F)F [Example 36, ({1-[6-({1-[4-(difluoromethyl)phenyl]-4-methyl-1H-1,2,3-triazol-5-yl}methoxy)pyridazin-3-yl]-1H-imidazol-4-yl}methyl)trimethylazanium trifluoroacetate] | > 2.17 h | -31.5% | 6.2 nM | 0.5 | 6 nm/s
3 | Cc1nnn(-c2ccc(C(F)F)cc2)c1COc1ccc(-n2cnc(C(=O)O)c2)nn1 [Example 37, 1-[6-({1-[4-(difluoromethyl)phenyl]-4-methyl-1H-1,2,3-triazol-5-yl}methoxy)pyridazin-3-yl]-1H-imidazole-4-carboxylic acid] | > 2.17 h | -28.2% | 4.7 nM | 0.8 | 7 nm/s
4 | Cc1nnn(-c2ccc(C(F)F)cc2)c1COc1ccc(-n2cnc(CN)c2)nn1 [Example 35, {1-[6-({1-[4-(difluoromethyl)phenyl]-4-methyl-1H-1,2,3-triazol-5-yl}methoxy)pyridazin-3-yl]-1H-imidazol-4-yl}methanamine] | > 2.17 h | -21.7% | 2.1 nM | – | –
5 | CCn1cc(-c2ccc(OCc3c(C)nnn3-c3ccc(C(F)F)cc3)nn2)cn1 [Example 7] | – | -32% | 6 nM | 2.7 | 177 nm/s
6 | Cc1nnn(-c2ccc(C(F)F)cc2)c1COc1ccc(-n2cnc(S(C)(=O)=O)c2)nn1 [Example 19] | > 2.17 h | -25% | 7.7 nM | – | –
7 | Cc1nnn(-c2ccc(C(F)F)cc2)c1COc1ccc(-c2cnn(C)c2)nn1 [Example 5] | > 2.17 h | -37.7% | 5.8 nM | – | –
8 | Cc1nnn(-c2ccc(C(F)F)cc2)c1COc1ccc(-n2cnc(C(C)O)c2)nn1 (stereo not drawn) [Example 40] | > 2.17 h | -17% | 1.9 nM | – | –
9 | Cc1nnn(-c2ccc(C(F)F)cc2)c1COc1ccc(-n2cnc(C(N)=O)c2)nn1 [Example 27, 1-[6-({1-[4-(difluoromethyl)phenyl]-4-methyl-1H-1,2,3-triazol-5-yl}methoxy)pyridazin-3-yl]-1H-imidazole-4-carboxamide] | > 2.17 h | -35.2% | 0.4 nM | – | –
10 | Cc1n[nH]c(C)c1-c1ccc(OCc2c(C)nnn2-c2ccc(C(F)F)cc2)nn1 [Example 12, 3-({1-[4-(difluoromethyl)phenyl]-4-methyl-1H-1,2,3-triazol-5-yl}methoxy)-6-(3,5-dimethyl-1H-pyrazol-4-yl)pyridazine] | 0.417 h | -26% | 13 nM | – | –
11 | Cc1nnn(-c2ccc(C(F)F)cc2)c1COc1ccc(-c2cncc(-n3ccnc3)c2)nn1 [Example 8] | 1.22 h | -19.5% | 17 nM | – | –
12 | Cc1nnn(-c2ccc(C(F)F)cc2)c1COc1ccc(-n2cc3c(n2)CCNC3=O)nn1 [Example 26] | > 2.17 h | -27% | 3.4 nM | – | –
13 | Cc1nnn(-c2ccc(C(F)F)cc2)c1COc1ccc(-n2cnc(C=O)c2)nn1 [Example 17] | 0.167 h | -23% | 1.7 nM | – | –
14 | Cc1nnn(-c2ccc(C(F)F)cc2)c1COc1ccc(-n2ccc(C#N)n2)nn1 [Example 20] | – | -19.7% | 4.4 nM | 0.6 | 520 nm/s
15 | Cc1nnn(-c2ccc(C(F)F)cc2)c1COc1ccc(-n2cnc(CO)c2)nn1 [Example 38, {1-[6-({1-[4-(difluoromethyl)phenyl]-4-methyl-1H-1,2,3-triazol-5-yl}methoxy)pyridazin-3-yl]-1H-imidazol-4-yl}methanol] | > 2.17 h | -23% | 1.7 nM | – | –
16 | Cc1nnn(-c2ccc(C(F)F)cc2)c1COc1ccc(-n2cnc(C(C)(C)O)c2)nn1 [Example 39, 2-{1-[6-({1-[4-(difluoromethyl)phenyl]-4-methyl-1H-1,2,3-triazol-5-yl}methoxy)pyridazin-3-yl]-1H-imidazol-4-yl}propan-2-ol] | > 2.17 h | -17.3% | 1.8 nM | – | –
17 | Cc1nnn(-c2ccc(C(F)F)cc2)c1COc1ccc(-c2cnc(OCC(C)(C)O)nc2)nn1 [Example 4] | > 2.17 h | -41.5% | 22.8 nM | – | –
18 | Cc1nnn(-c2ccc(C(F)F)cc2)c1COc1ccc(-c2ccnc(O)c2)nn1 [Example 2, 4-[6-({1-[4-(difluoromethyl)phenyl]-4-methyl-1H-1,2,3-triazol-5-yl}methoxy)pyridazin-3-yl]pyridin-2-ol] | > 2.17 h | -57% | 6 nM | – | –
19 | Cc1nnn(-c2ccc(C(F)F)cc2)c1COc1ccc(-n2cc(C#N)cn2)nn1 [Example 31] | > 2.17 h | -23% | 7.4 nM | – | –
20 | COc1ncc(-c2ccc(OCc3c(C)nnn3-c3ccc(C(F)F)cc3)nn2)cn1 [Example 3] | – | -44.3% | 13.5 nM | 0.6 | 597 nm/s
